Earlier results, collected in patent US20260015669A1, “COMPOSITIONS AND METHODS FOR DETECTING AND TREATING TUMORS AND/OR CANCERS ASSOCIATED WITH BRAF AND/OR MAP2K1 VARIANTS” (North Carolina State University, priority 2022, published 2026).

Legend:
ΔNVTAP mutants [1] = details: human cancer cell lines; RAF dimer inhibitors target the αC-in/DFG-out conformation
ΔNVTAP mutants [2] = biological target: ΔNVTAP mutants (Homo sapiens, UniProt P15056, DEL486-490); details: human cancer cell lines; in contrast to V600E mutants; inhibitors target the αC-out/DFG-in conformation
Sequence of ΔNVTAP mutants (Homo sapiens, UniProt P15056, DEL486-490) (P15056 with tags, fused parts or gaps DEL486-490): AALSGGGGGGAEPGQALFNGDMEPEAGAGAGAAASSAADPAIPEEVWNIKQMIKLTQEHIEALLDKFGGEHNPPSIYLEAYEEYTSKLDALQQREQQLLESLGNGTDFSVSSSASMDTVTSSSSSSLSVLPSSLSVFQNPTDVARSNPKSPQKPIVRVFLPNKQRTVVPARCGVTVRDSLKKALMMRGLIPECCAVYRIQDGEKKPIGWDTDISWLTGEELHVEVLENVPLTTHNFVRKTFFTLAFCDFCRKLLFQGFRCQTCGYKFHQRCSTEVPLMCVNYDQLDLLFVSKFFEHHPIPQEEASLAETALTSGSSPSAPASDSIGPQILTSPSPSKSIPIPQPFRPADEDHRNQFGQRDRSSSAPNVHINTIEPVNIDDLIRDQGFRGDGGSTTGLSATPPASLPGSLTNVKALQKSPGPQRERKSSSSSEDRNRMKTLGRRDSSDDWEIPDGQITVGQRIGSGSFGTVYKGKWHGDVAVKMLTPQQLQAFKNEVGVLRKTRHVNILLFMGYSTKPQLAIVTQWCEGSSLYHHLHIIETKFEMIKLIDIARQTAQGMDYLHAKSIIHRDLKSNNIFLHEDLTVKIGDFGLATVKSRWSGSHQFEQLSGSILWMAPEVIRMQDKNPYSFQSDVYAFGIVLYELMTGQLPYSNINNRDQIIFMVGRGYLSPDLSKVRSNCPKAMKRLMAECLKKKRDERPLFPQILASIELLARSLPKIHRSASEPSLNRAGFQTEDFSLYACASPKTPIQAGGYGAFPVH

SMILES | response of mutants with exon 12 in-frame deletions to pan-RAF dimer inhibitors and allosteric MEK inhibitors (ΔNVTAP mutants [1]) | response of ΔNVTAP mutants to BRAF monomer inhibitors (ΔNVTAP mutants [2])
CNc1ncc2cc(-c3cc(NC(=O)NCCC(C)(C)C)c(F)cc3C)c(C)nc2n1 [LY3009120] | susceptible | 
CC(C)(C)c1nc(-c2cccc(NS(=O)(=O)c3c(F)cccc3F)c2F)c(-c2ccnc(N)n2)s1 [dabrafenib] |  | resistant
O=C(c1ccc(F)c(F)c1Nc1ccc(I)cc1F)N1CC(O)([C@@H]2CCCCN2)C1 [cobimetinib] | susceptible | 
Cc1ccc(NC(=O)c2cccc(C(C)(C)C#N)c2)cc1Nc1ccc2ncn(C)c(=O)c2c1 [AZ628] | susceptible | 
